{"source": "patent US20100284966A1", "about": "(priority 2005, published 2010)", "test_system": "HCV replicon", "data": [{"smiles": "Cn1cnc([N+](=O)[O-])c1Sc1ncnc2[nH]cnc12", "note": "[AZA]", "values": [{"measurement": "fewer cells (toxicity)", "value": "~10", "unit": "%"}]}]}
